Assay results from article PMC11354370, “Inducing Receptor Degradation as a Novel Approach to Target CC Chemokine Receptor 2 (CCR2)” (International Journal of Molecular Sciences, 2024).
Like-named read-outs stand apart in the source and are kept apart here. Each block holds one molecule with its values, some of them ahead of it. Peptide text beside a SMILES is read from it. * marks the point of attachment. Cbz = O=C(OCc1ccccc1)*

How the values were obtained:
CCR2-HaloTag-HiBiT [1] = target: T1, CCR2-HaloTag-HiBiT (UniProt P0A3G2+P41597, A155T/A167V/A172T/A224E/C128F/C176G/D78G/E160K/E257K/H272N/K175M/K195N/L47V/L88M/N227D/S58T/T264A/Y273L/Y87F); assay type: cell-based, human
T1 sequence (P41597+P0A3G2 fused with the stated changes): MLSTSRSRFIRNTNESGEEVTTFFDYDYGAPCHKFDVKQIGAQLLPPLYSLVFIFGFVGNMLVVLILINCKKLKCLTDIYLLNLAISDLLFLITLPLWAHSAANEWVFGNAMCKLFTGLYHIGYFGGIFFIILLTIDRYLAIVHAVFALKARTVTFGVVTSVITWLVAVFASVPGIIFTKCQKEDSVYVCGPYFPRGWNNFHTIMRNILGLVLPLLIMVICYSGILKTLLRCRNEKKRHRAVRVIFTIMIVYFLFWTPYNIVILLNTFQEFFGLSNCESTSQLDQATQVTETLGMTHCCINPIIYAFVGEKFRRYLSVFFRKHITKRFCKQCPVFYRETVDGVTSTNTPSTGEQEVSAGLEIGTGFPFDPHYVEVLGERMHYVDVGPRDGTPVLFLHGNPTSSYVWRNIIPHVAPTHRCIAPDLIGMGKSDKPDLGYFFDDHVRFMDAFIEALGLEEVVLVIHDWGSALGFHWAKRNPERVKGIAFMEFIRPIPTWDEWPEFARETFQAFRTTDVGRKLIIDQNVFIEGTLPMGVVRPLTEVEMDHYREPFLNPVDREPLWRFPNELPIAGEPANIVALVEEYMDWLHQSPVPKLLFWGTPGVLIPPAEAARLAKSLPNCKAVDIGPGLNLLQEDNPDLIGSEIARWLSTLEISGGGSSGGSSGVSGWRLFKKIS

CCR2-HaloTag-HiBiT [2] = test: Lytic HiBiT assay with inhibitor pretreatment (2 h) then vehicle or HaloPROTAC3 (3 h); assay type: cell-based, human; conditions: 5 µg plasmid; for HaloPROTAC3-mediated CCR2 degradation after pretreatment with the inhibitor: inhibitor 2 h pretreatment, then 1 µM HaloPROTAC3 3 h
Description: To investigate the mechanism of action of HaloPROTAC3-induced degradation of CCR2-HaloTag-HiBiT, we pretreated the cells with a variety of inhibitors. […] After 2 h, the cells were treated with vehicle or HaloPROTAC3 (1µM) and degradation was measured after 3 h of HaloPROTAC3 treatment or vehicle control.
Next, we explored whether degradation occurs via the proteasomal or the lysosomal pathway. […] Finally, we included cycloheximide as an inhibitor of protein synthesis.
Fractional RLU values were calculated from the resulting baseline-corrected values by normalizing all values at a given time point to the vehicle-control value. For lytic HiBiT assays, data are presented as % of vehicle-control; for real-time HiBiT assays, data are presented as fractional RLUs, which corresponds to the ratio between the baseline-corrected RLU values of a compound and the RLU values of the vehicle at any given time point. […] To calculate the degradation rate (K) from real-time HiBiT assays, the degradation curves were fitted to a one-phase exponential decay model following the equation Y = (Y0 − Plateau)e^−Kt + Plateau.

CCR2-HaloTag-HiBiT [3] = target: T1, CCR2-HaloTag-HiBiT; assay type: cell-based, human; conditions: for Dmax ± SEM (maximal degradation): determined at 1 µM, negative values represent an increase in CCR2 levels
CCR2-HaloTag-HiBiT [4] = target: T2, CCR2-HaloTag-HiBiT (Homo sapiens, UniProt P41597); assay type: cell-based
T2 construct: host or cells: A549 cells, lentiviral transduction, single-cell clones #25, #26, #27
T2 sequence (P41597 other isoform, or with tags, fused parts or gaps): as the sequence (P41597+P0A3G2 fused with the stated changes) above
Description: While the HiBiT luminescence approach provides a good platform for high-throughput screening of targeted protein degradation, integral membrane protein degradation studies benefit from information about their localization. […] To mitigate the need for transfection, we transduced A549 cells with lentiviral particles for stable integration of expression cassettes for CCR2-HaloTag-HiBiT expression constructs, followed by antibiotic selection and limiting dilution to generate single-cell clones.
A549 cells were seeded at 400,000 cells per well in 6 well dishes to be approximately 50% confluent the next day. For seeding 1.5 mL of cell-containing medium was used. A total of 500 µL of lentiviral particles and 1.6 µL of polybrene (Sigma-Aldrich, Merck, Darmstadt, Germany) were added on top, and cells were incubated overnight. The next day, cells were washed two to three times in PBS and a growth medium containing 100 µg/mL of hygromycin B at 100 µg/mL was added. Cells were incubated until non-transduced cells were dead or until transduced cells were confluent (in which case they were split into a bigger flask in a hygromycin selection medium). After selection, cells were diluted to 0.5 cells/200 µL in a growth medium containing 20% FCS, and 96 well plates were seeded with 200 µL per well. Single-cell clones were grown back up to bigger populations and screened by immunofluorescence for HiBiT expression.
A549 CCR2b-HALO-HiBiT expressing cells were seeded onto 384-well plates suitable for high-throughput microscopy (PerkinElmer, Groningen, The Netherlands; Corning, NY, USA) with a density ranging from 2000–4000 cells per well. The next day, plates were treated with different concentrations of HaloPROTAC3 or ent-HaloPROTAC3 using a Tecan D300e digital dispenser. […] Cells were then washed three times in PBS and simultaneously permeabilized and blocked for an hour using a modified blocking buffer (0.1% Triton (v/v), 1% BSA (w/v) (Sigma, A7030, Merck, Darmstadt, Germany)). […] Plates were imaged on either Yokogawa CV7000 or CV8000 systems with appropriate settings for detection of each relevant channel. Images were analyzed using Columbus image analysis.

CCR2-HaloTag-HiBiT [5] = target: T1, CCR2-HaloTag-HiBiT; assay type: cell-based, human; conditions: 1 µM pretreatment 3 h, then 60 nM CCL2; HEK293T CCR2-HaloTag-HiBiT
CCR2-HaloTag-HiBiT [6] = target: T1, CCR2-HaloTag-HiBiT; test: xCELLigence label-free impedance assay, CCL2 stimulation of HEK293T cells transfected with CCR2-HaloTag-HiBiT; conditions: HEK293T cells expressing CCR2-HaloTag-HiBiT

Molecule: C[C@@H]1C[C@@H]([C@H](O)CC2CC(=O)NC(=O)C2)C(=O)[C@@H](C)C1 [cycloheximide]
native degradation rate (Knative) of CCR2-HaloTag-HiBiT (CCR2-HaloTag-HiBiT [1]; 10 µM cycloheximide, up to 24 h): 0.25 ± 0.01 h⁻¹ | HaloPROTAC3-mediated CCR2 degradation after pretreatment with the inhibitor (CCR2-HaloTag-HiBiT [2]): not affected | reduction in CCR2 levels, exclusive treatment with inhibitor (CCR2-HaloTag-HiBiT [2]; inhibitor 2 h then vehicle 3 h): more than 50%

Molecule: CC(C)C[C@@H](C=O)NC(=O)[C@H](CC(C)C)NC(=O)[C@H](CC(C)C)NC(=O)OCc1ccccc1 [MG-132] (Cbz-Leu-Leu-Leu-aldehyde)
HaloPROTAC3-mediated CCR2 degradation after pretreatment with the inhibitor (CCR2-HaloTag-HiBiT [2]): partially or fully recovered | reduction in CCR2 levels, exclusive treatment with inhibitor (CCR2-HaloTag-HiBiT [2]; inhibitor 2 h then vehicle 3 h): not observed

Molecule: NS(=O)(=O)OC[C@@H]1C[C@@H](n2ccc3c(N[C@H]4CCc5ccccc54)ncnc32)C[C@@H]1O [MLN-4924, Pevonedistat]
HaloPROTAC3-mediated CCR2 degradation after pretreatment with the inhibitor (CCR2-HaloTag-HiBiT [2]): fully prevented | reduction in CCR2 levels, exclusive treatment with inhibitor (CCR2-HaloTag-HiBiT [2]; inhibitor 2 h then vehicle 3 h): 24%

Molecule: COc1cc(C(=O)O)ccc1NC(=O)[C@@H]1N[C@@H](CC(C)(C)C)[C@](C#N)(c2ccc(Cl)cc2F)[C@H]1c1cccc(Cl)c1F [idasanutlin]
HaloPROTAC3-mediated CCR2 degradation after pretreatment with the inhibitor (CCR2-HaloTag-HiBiT [2]): neither pomalidomide nor idasanutlin had an effect

effect on receptor levels, inhibitor on its own (CCR2-HaloTag-HiBiT [2]; inhibitor 2 h then vehicle 3 h): not affected
Molecule: CCN(CC)CCCC(C)Nc1ccnc2cc(Cl)ccc12 (stereo not shown) [chloroquine, Chloroquine diphosphate]

Molecule: Cc1ncsc1-c1ccc(CNC(=O)[C@H]2C[C@H](O)CN2C(=O)[C@@H](C(C)C)N2Cc3ccccc3C2=O)c(OCCOCCOCCOCCCCCCCl)c1 [ent-HaloPROTAC3]
decrease in CCR2 levels (luminescent signal) compared to vehicle control (CCR2-HaloTag-HiBiT [3]; 1 µM, 24 h, 5 µg plasmid): comparable to vehicle control | Dmax ± SEM (maximal degradation) (CCR2-HaloTag-HiBiT [3]; 24 h): −1 ± 4% | CCR2 levels upon titration of compound (normalized to vehicle control 100%) (CCR2-HaloTag-HiBiT [3]; multiple concentrations, 24 h, maximal level reached): remained unchanged | CCR2 levels over 24 h (CCR2-HaloTag-HiBiT [1]; 1 µM, all DNA plasmid concentrations (1, 3, 5 µg; Figure S5)): remained unchanged | change of CCR2 levels, multiple concentrations (CCR2-HaloTag-HiBiT [1]; 3 µg plasmid, 24 h): did not change CCR2 levels at any of the concentrations tested | effect on HiBiT immunofluorescence signal (CCR2-HaloTag-HiBiT [4]; 1 µM, 24 h, A549 clones): appeared to increase the signal throughout the cell | remaining CCL2 response (AUC first 20 min, normalized to 60 nM CCL2 alone) (CCR2-HaloTag-HiBiT [5]): 85 ± 10%

Molecule: CC(C)C[C@H](NC(=O)[C@H](Cc1ccccc1)NC(=O)c1cnccn1)B(O)O [bortezomib]
HaloPROTAC3-mediated CCR2 degradation after pretreatment with the inhibitor (CCR2-HaloTag-HiBiT [2]): partially or fully recovered | reduction in CCR2 levels, exclusive treatment with inhibitor (CCR2-HaloTag-HiBiT [2]; inhibitor 2 h then vehicle 3 h): ~ 17%

Molecule: CCL2: endogenous chemokine ligand of CCR2
efficacy (Emax) of CCL2 (CCR2-HaloTag-HiBiT [6]): 68 ± 8% | pEC50 of CCL2-induced impedance increase (CCR2-HaloTag-HiBiT [6]): 7.6 ± 0.2 | EC50 (CCR2-HaloTag-HiBiT [6]; read-out: EC50 of CCL2-induced impedance increase): 29 nM

Molecule: CO/C1=C\C(C)=C\[C@@H](C)[C@@H](O)[C@@H](C)C/C(C)=C/C=C/[C@H](OC)[C@@H]([C@@H](C)[C@@H](O)[C@H](C)[C@@]2(O)C[C@@H](O)[C@H](C)[C@@H](C(C)C)O2)OC1=O [Bafilomycin-A1, Bafilomycin A1]
increase in CCR2-HaloTag-HiBiT levels, exclusive treatment with inhibitor (CCR2-HaloTag-HiBiT [2]; inhibitor 2 h then vehicle 3 h): > 30%

Molecule: Nc1cccc2c1C(=O)N(C1CCC(=O)NC1=O)C2=O (stereo not shown) [pomalidomide]
HaloPROTAC3-mediated CCR2 degradation after pretreatment with the inhibitor (CCR2-HaloTag-HiBiT [2]): neither pomalidomide nor idasanutlin had an effect

Molecule: Cc1ncsc1-c1ccc(CNC(=O)[C@@H]2C[C@@H](O)CN2C(=O)[C@H](C(C)C)N2Cc3ccccc3C2=O)c(OCCOCCOCCOCCCCCCCl)c1 [HaloPROTAC3]
decrease in CCR2 levels (luminescent signal) compared to vehicle control (CCR2-HaloTag-HiBiT [3]; 1 µM, 24 h, 5 µg plasmid): ~ 35% | CCR2 degraded, time course (CCR2-HaloTag-HiBiT [3]; 1 µM, after 4 h, 5 µg plasmid (Figure S4)): Approximately 20% | CCR2 degraded, time course (CCR2-HaloTag-HiBiT [3]; 1 µM, after 24 h, 5 µg plasmid (Figure S4)): 26% | CCR2 degraded, time course (maximum degradation) (CCR2-HaloTag-HiBiT [3]; 1 µM, by 6 h, 5 µg plasmid (Figure S4)): 24% | pDC50 ± SEM (apparent potency of degradation) (CCR2-HaloTag-HiBiT [3]; 24 h, 5 µg plasmid): 7.4 ± 0.01 | DC50 (CCR2-HaloTag-HiBiT [3]; 24 h, 5 µg plasmid, read-out: DC50 (apparent degradation potency) (converted)): 42 nM | Dmax ± SEM (maximal degradation) (CCR2-HaloTag-HiBiT [3]; 24 h): 38 ± 5% | degradation of CCR2-HaloTag-HiBiT depending on the protein expression levels (CCR2-HaloTag-HiBiT [3]; summary over lytic and real-time HiBiT assays (Figure 2 and Figure 3)): 30–80% | degradation achieved after 3 h treatment (CCR2-HaloTag-HiBiT [1]; 1 µM (Figure 3B,F)): > 70% | degradation rate compared with cycloheximide on its own (CCR2-HaloTag-HiBiT [1]; 1 µM HaloPROTAC3 in absence or presence of 10 µM cycloheximide): higher than that determined by cycloheximide on its own | degradation rate (Kdeg) (CCR2-HaloTag-HiBiT [1]; 1 µM, 1 µg plasmid): 0.000131 ± 1.1e-05 s⁻¹ | maximal degradation at 24 h (CCR2-HaloTag-HiBiT [1]; 1 µM, 1 µg plasmid): 89 ± 2% | degradation reached after 9 h of treatment up to 24 h (CCR2-HaloTag-HiBiT [1]; 1 µM, 3 µg plasmid): ≥ 90% | maximal degradation at 24 h (CCR2-HaloTag-HiBiT [1]; 1 µM, 3 µg plasmid): 76 ± 4% | time Dmax was maintained (CCR2-HaloTag-HiBiT [1]; 1 µM, 3 µg plasmid): ~ 15 h | degradation rate (Kdeg) (CCR2-HaloTag-HiBiT [1]; 1 µM, 3 µg plasmid, one-phase exponential decay): 0.000144 ± 1.1e-05 s⁻¹ | degradation rate (Kdeg) (CCR2-HaloTag-HiBiT [1]; 1 µM, 5 µg plasmid): 0.000114 ± 4.72e-05 s⁻¹ | maximal degradation at 24 h (CCR2-HaloTag-HiBiT [1]; 1 µM, 5 µg plasmid): 60 ± 6% | degradation potency (pDmax50) (CCR2-HaloTag-HiBiT [1]; 3 µg plasmid, Dmax at each concentration): 6.7 ± 0.1 | CCR2 degradation by HaloPROTAC3 in the absence of inhibitor (CCR2-HaloTag-HiBiT [2]; 1 µM HaloPROTAC3, 3 h): 32% | maximal degradation (HiBiT antibody signal) (CCR2-HaloTag-HiBiT [4]; A549 clone #25, 1 µM, 24 h): 39% | DC50 (CCR2-HaloTag-HiBiT [4]; A549 clone #25, 24 h): 17.1 nM | reduction of CCR2-HaloTag-HiBiT levels (HiBiT antibody signal) (CCR2-HaloTag-HiBiT [4]; A549 clone #26, 1 µM, 24 h): approximately 80% | DC50 (CCR2-HaloTag-HiBiT [4]; A549 clone #26, 24 h): 18.1 nM | pDC50 (CCR2-HaloTag-HiBiT [4]; A549 clone #26, 24 h): 7.8 ± 0.1 | reduction of CCR2-HaloTag-HiBiT levels (HiBiT antibody signal) (CCR2-HaloTag-HiBiT [4]; A549 clone #27, 1 µM, 24 h): approximately 80% | DC50 (CCR2-HaloTag-HiBiT [4]; A549 clone #27, 24 h): 11.8 nM | pDC50 (CCR2-HaloTag-HiBiT [4]; A549 clone #27, 24 h): 8.0 ± 0.2 | remaining CCL2 response (AUC first 20 min, normalized to 60 nM CCL2 alone) (CCR2-HaloTag-HiBiT [5]): 25 ± 19%
